The text below walks through data of article PMC4366162 (PLoS ONE, 2015).

The subject of data set [1] is LPS-induced NO production in rat kidney mesangial cells (HBZY-1). Kind of data set: Total nitrite assay (Griess): inhibition of LPS-induced NO production in kidney mesangial cells. Format: cell-based. The settings on record: for pIC50: read-out: IC50 against LPS-induced NO production (total nitrite). As for the experimental part: (§1) Rat mesangial HBZY-1 cells were obtained from China Center for Type Culture Collection (Wuhan, China). Cells were maintained in high glucose DMEM medium (Invitrogen, USA) supplemented with 10% heat-inactivated fetal bovine serum (FBS), 25 mM HEPES, 2 mM L-glutamine, 0.1 mM nonessential amino acids, 1.0 mM sodium pyruvate, 50 U/mL penicillin, and 50 μg/mL streptomycin at 37°C and 5% CO2. The cell passage number used for the following investigation was between 10 to 20 passages.
Mesangial cells were plated on 48-well plates at a density of 50,000 cells per well overnight in DMEM media containing 2% FBS. Cells were treated by flavonoid compounds at a series of concentrations from 0, 0.05, 0.1, 0.5, 1, 5, 10 to 50 μM or 0, 1, 5, 10, 50, 100 to 200 μM based on the initial activity range with or without 10 ng/mL LPS. Total nitrite production in the treatment media after 48 h was measured with Griess assay. Briefly, 100 μL media was mixed with 25 μL of reagent І (1% sulfanilamide in 5% phosphoric acid) and then 25 μL of reagent II (0.1% N-1-napthylethylenediamine dihydrochloride in water). The optical absorbance of the resulting solution was recorded at 540 nm with a 318C-microplate reader (Sanco Instrument Ltd. Shanghai, China) after 20 min. […] IC50 values were obtained using the dose-response analysis provided by the GraphPad Prism software.
All of the hydroxylated flavones were abbreviated as the positions of hydroxyl groups followed by—HO. The total production of nitrite in the treatment media was measured with Griess assay at 48 h post 10 ng/mL LPS stimulation.

Data set [2] is described as follows: NO radical quenching study (spontaneous NO from sodium nitroprusside, Griess assay). The settings on record: sodium nitroprusside 5 mM in solution, read-out: IC50 of inhibition of spontaneously generated NO radicals from sodium nitroprusside. As for the experimental part: Spontaneous generation of NO in solutions was achieved by a freshly prepared sodium nitroprusside stock solution in water (50 mM). The level of total nitrile production was determined by the Griess assay with the standard curve of sodium nitrile as described above. For the assay of NO inhibition by flavonoids, sodium nitroprusside solution (10 mM, 25 μL) was mixed with an equal volume of flavonoid solution in 50% DMSO, and the resulting solution was incubated at room temperature for 10 min. Griess reagent І and Griess reagent II (75 μL each) were subsequently added with a gap of 10 min. The optical density at 540 nm was recorded on a 318C-microplate reader after 15 min. The resulting data were processed and analyzed by the GraphPad Prism Software as described above.
Fig 3 Direct NO radical quench study with selected monohydroxylated and polyhydroxylated flavones. Spontaneous generation of NO was achieved by a freshly prepared sodium nitroprusside stock solution (5 mM) in water in Griess assay (top).
Background: The Griess reaction detects nitrite, a stable product of nitric oxide.

The test system of another data set is cytochrome P450 2C9. Also noted: method as in PMID 19515014. The following applies: cited from earlier work.
For data set [3], the system named is phosphorylated p65 protein (NF-κB pathway). Kind of data set: Western blot analysis of LPS-activated NF-κB pathway (phosphorylated p65). Format: cell-based, rat. The following applies: up to 1.0 μM, 12 h pretreatment, LPS 500 ng/mL, 15 min. On the procedure:
(§2) Cells were plated in growth media overnight at a density of 1×10^6 cells per well on a 6-well plate. […] For the western blot analysis, cells were washed with PBS and then lysed with 150 μL RIPA buffer containing protease and phosphatase inhibitor cocktail. The supernatants were collected by centrifuge at 14,000 g×10 min at 4°C and stored at -80°C. The total protein content of lysates was determined by enhanced BCA protein assay kit (Beyotime Institute of Biotechnology, Shanghai, China). Electrophoresis was carried out on a NuPAGE Novex Bis-Tris […] gel (Invitrogen, USA) under the reduced condition. After electrophoresis separation, proteins were transferred to membranes and incubated with rabbit monoclonal phospho-NF-κB-p65 antibody (3033S, 1:1000 dilution, Cell Signaling, USA), rabbit polyclonal iNOS antibody (ab3523, 1:500 dilution, Abcam, USA) or mouse monoclonal β-actin antibody (ANT009, 1:1000 dilution AntGene, China). Targeted proteins were then visualized with Qdot 625 conjugate kit (Invitrogen, USA). Gel images were captured with ZF-258 Gel Imaging System (Shanghai Jiapeng Scientific Co. Ltd, China) under illuminating light at 350 nm.
(§3) Fig 5 Western blot analysis of potential molecular targets by 6-methoxyflavone in kidney mesangial cells with LPS as the inflammatory stimuli. […]
(Immunoblotting shows a protein as a band on a membrane.)

Data set [4] relates to inducible NO synthase (iNOS). Kind of data set: Western blot analysis of LPS-induced iNOS protein. The following applies: 12 h pretreatment, LPS 500 ng/mL, 24 h. It counts as cell-based, rat. As for the experimental part:
as §2, §3

In the next data set the test system is mesangial cells. Kind of data set: MTT cell viability assay. It counts as cell-based, rat. The following applies: 48 h. On the procedure:
as §1
Cells were plated overnight in growth media (5,000 cells per well) and then treated with each compound for 48 h at increasing concentrations with total DMSO at 0.1%. MTT assay was carried out as reported, and cell viability was plotted with GraphPad Prism program.
Background: Tetrazolium assays rely on reduction of a dye to a coloured formazan, in cell work by metabolically active cells.

The mark [5] stands for this setting: Rattus norvegicus, HBZY-1, 48 h, rat mesangial cells, 10 ng/mL LPS, 48 h, Griess assay.
[6] abbreviates: Rattus norvegicus, HBZY-1, 48 h.

pIC50: −log10 of the molar value. Structures can show the parent of a compound that is named as a salt. Where two headings read alike, the source gives them in different places. Bounds are passed on as bounds.

As a reminder, the pIC50 is −log10 of the IC50, conventionally taken in molar units. With `O=c1c(O)c(-c2ccc(O)cc2O)oc2cc(O)cc(O)c12` [2',3,4',5,7-HO, morin], in data set [1] (setting [5]), the negative logarithm of the IC50 (pIC50) is about 3.70. Turning to `O=c1c(O)c(-c2ccc(O)cc2O)oc2ccc(O)cc12` [2',3,4',6-HO, 2′,3,4′,6-tetrahydroxyflavone], in data set [1] (setting [5]), the negative logarithm of the IC50 (pIC50) was about 3.70. With `O=c1c(O)c(-c2ccccc2O)oc2c(O)c(O)ccc12` [2',3,7,8-HO], the negative-log IC50 (pIC50) in data set [1] (setting [5]) is about 3.70. On to `O=c1cc(-c2cc(O)c(O)c(O)c2)oc2cc(O)cc(O)c12` [3',4',5',5,7-HO, tricetin], for which the pIC50 in data set [1] (setting [5]) was about 3.70.

Turning to `O=c1c(O)c(-c2cc(O)c(O)c(O)c2)oc2cc(O)cc(O)c12` [3,3',4',5',5,7-HO, 3,3′,4′,5,5′,7-hexahydroxyflavone], the negative logarithm of the IC50 (pIC50) was about 2.00 in data set [2] and under 3.70 in data set [1] (setting [5]). As for `O=c1c(O)c(-c2ccc(O)c(O)c2)oc2c(O)c(O)cc(O)c12` [3,3',4',5,7,8-HO, 3,3′,4′,5,7,8-hexahydroxyflavone], the negative logarithm of the IC50 (pIC50) in data set [1] (setting [6]) was under 3.70. In the case of `O=c1c(O)c(-c2ccc(O)c(O)c2)oc2cc(O)cc(O)c12` [3,3',4',5,7-HO, quercetin], the pIC50 in data set [1] (setting [5]) is 4.66.

Take `O=c1c(O)c(-c2ccc(O)c(O)c2)oc2cc(O)ccc12` [3,3',4',7-HO, fisetin]: the negative-log IC50 (pIC50) in data set [1] (setting [5]) was 4.96.

As for `O=c1c(O)c(-c2cccc(O)c2)oc2cc(O)ccc12` [3,3',7-HO], in data set [1] (setting [5]), the pIC50 is 4.96. As to `O=c1cc(-c2ccc(O)cc2)oc2cc(O)cc(O)c12` [4',5,7-HO, apigenin], in data set [1] (setting [5]), the negative logarithm of the IC50 (pIC50) is under 3.70. On to `O=C1O[C@H]([C@@H](O)CO)C(O)=C1O` [ascorbic acid, reference compound], for which, in data set [2], the pIC50 is 3.60. For `O=c1cc(-c2ccccc2)oc2ccc(O)cc12` [compound 1, 6-hydroxyflavone], the pIC50 was under 3.30 in data set [2]; about 5.70 in data set [1] (setting [5]); 5.77 in data set [1] (rat mesangial cells, 10 ng/mL LPS, 48 h, Griess assay). Also, the “mode of inhibition of cytochrome P450 2C9” value in the data set on cytochrome P450 2C9 is recorded as “noncompetitive inhibition”. For the molecule `O=c1cc(-c2ccccc2)oc2cc(O)ccc12` [compound 2, 7-hydroxyflavone], the pIC50 in data set [2] is under 3.30; in data set [1] (setting [6]), 4.34. As for `O=c1cc(-c2ccccc2O)oc2ccccc12` [compound 3], the pIC50 in data set [1] (setting [5]) was under 3.70.

For the molecule `O=c1c(O)c(-c2ccccc2)oc2ccccc12` [compound 4, 3-Hydroxyflavone], the pIC50 in data set [2] was under 3.30; in data set [1] (setting [5]), under 3.70.

Regarding `O=c1cc(-c2ccc(O)cc2)oc2ccc(O)cc12` [compound 5, 4′,6-dihydroxyflavone], the pIC50 in data set [1] (setting [5]) is about 5.70. With `O=c1cc(-c2ccc(O)cc2)oc2cccc(O)c12` [compound 6], in data set [1] (setting [5]), the pIC50 was 4.85. Besides, the “increase of IC50 against LPS-induced NO production versus flavone 5” value in data set [1] (shift of hydroxyl group from 6-position to 5-position) is 7 fold.

`O=c1c(O)c(-c2ccccc2)oc2cc(O)ccc12` [compound 7]: the pIC50 in data set [1] (setting [6]) is 4.57.

Regarding `O=c1cc(-c2ccccc2)oc2c(O)c(O)ccc12` [compound 8], the negative-log IC50 (pIC50) in data set [1] (setting [5]) is 4.33. As to `COc1ccc2oc(-c3ccccc3)cc(=O)c2c1` [compound 9, 6-methoxyflavone], the “inhibition of p65 activation (phosphorylated p65)” value in data set [3] was “no observable inhibition”. Further, the negative-log IC50 (pIC50) in data set [1] (setting [5]) is 6.72. Also, in data set [1] (more potent than 6-hydroxyflavone (IC50 1.7 μM)), the “potency against LPS-induced NO production relative to 6-hydroxyflavone” value is recorded as 10 fold. For the same molecule, the “inhibition of downstream inducible NO synthase (iNOS) upon LPS stimulation” value in data set [4] (from 200 nM to 1.0 μM) is on record as “significant inhibition”. In addition, the “cytotoxicity on mesangial cells” value in the data set on mesangial cells (at 1.0 μM) is recorded as “weak cytotoxicity”.

For `CC(=O)Oc1ccc2oc(-c3ccccc3)cc(=O)c2c1` [compound 10, 6-Acetoxyflavone], the pIC50 in data set [1] (setting [5]) is 6.22. For the same molecule, in the data set with mesangial cells (at 10 μM), the “cytotoxicity on mesangial cells” value is reported as “weak cytotoxicity”.

On to `O=c1cc(-c2ccccc2)oc2ccc(OS(=O)(=O)O)cc12` [compound 11, 6-flavone sulfate sodium salt], for which the pIC50 in data set [1] (setting [5]) was 5.68. Moreover, in the data set on mesangial cells (at 10 μM), the “cytotoxicity on mesangial cells” value is recorded as “minimal”. For `O=c1c(-c2ccc(O)cc2)coc2cc(O)ccc12` [daidzein, reference compound], the negative logarithm of the IC50 (pIC50) in data set [1] (setting [5]) was under 3.70. With `Oc1ccc(/C=C/c2cc(O)cc(O)c2)cc1` [resveratrol, reference compound], in data set [1] (setting [5]), the negative logarithm of the IC50 (pIC50) is 4.96. Besides, the “inhibition of downstream inducible NO synthase (iNOS) upon LPS stimulation” value in data set [4] (at 10 μM) is “weak inhibition”.
